Experimental data as given in patent publication US20230365592A1 (Agios Pharmaceuticals, Inc., priority 2022, published 2023).

molecular target: T1, human PAH with the R408W mutation (Homo sapiens, UniProt P00439, R408W); test: Cell Based Phenylalanine Flux Assay; details: A375 cells expressing R408W PAH; 24 hrs with compound, then 20 µM sepiapterin and 800 µM 13C9,15N-Phenylalanine for 4 hours; 13C-Tyrosine by LC-MS; average where tested multiple times; read-out: AC50;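 also: after compound treatment, cells received sepiapterin plus isotope-labelled Phenylalanine for 4 hours, then labelled Tyrosine in the medium was quantified, 10-point 2-fold dilution series run in duplicate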
T1 construct: expressed in transfected cells
T1 sequence (P00439 1-452 R408W): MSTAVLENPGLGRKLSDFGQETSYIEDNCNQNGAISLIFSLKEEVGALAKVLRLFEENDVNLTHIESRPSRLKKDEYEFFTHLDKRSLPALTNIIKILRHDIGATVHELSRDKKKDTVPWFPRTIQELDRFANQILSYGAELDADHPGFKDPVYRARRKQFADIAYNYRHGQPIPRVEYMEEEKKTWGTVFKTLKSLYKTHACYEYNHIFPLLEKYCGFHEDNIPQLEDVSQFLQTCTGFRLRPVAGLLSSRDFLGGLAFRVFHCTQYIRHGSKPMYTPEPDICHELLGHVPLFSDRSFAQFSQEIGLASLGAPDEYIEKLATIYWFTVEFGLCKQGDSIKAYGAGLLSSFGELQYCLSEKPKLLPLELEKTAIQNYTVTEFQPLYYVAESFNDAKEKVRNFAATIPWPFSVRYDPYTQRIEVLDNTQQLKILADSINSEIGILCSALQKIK

Row | Structure (SMILES) | AC50
1 | FC(F)c1cccc2cc([C@H]3c4nc[nH]c4CCN3c3nnc(C4CCC4)o3)nn12 (single isomer, unassigned) | > 5000 nM
2 | O=C(c1nnc(C2CC2)o1)N1CCc2[nH]cnc2C1c1cc2ccc(C(F)(F)F)cn2n1 (centres unmarked) | 1000 to 5000 nM
3 | Cc1cccn2nc(C3c4nc[nH]c4CCN3C(=O)c3cc(C(C)(C)C)nn3C)cc12 (centres unmarked) | 1000 to 5000 nM
4 | c1ccn2nc(C3c4nc[nH]c4CCN3c3nnc(-c4cnccn4)o3)cc2c1 (centres unmarked) | 1000 to 5000 nM
5 | Cc1c(C2c3nc[nH]c3CCN2C(=O)c2nnc(-c3cnn(C)c3)o2)nn2ccccc12 (centres unmarked) | 1000 to 5000 nM
6 | O=C(c1cnco1)N1CCc2[nH]cnc2C1c1cc2ccccn2n1 (centres unmarked) | 1000 to 5000 nM
7 | COCc1ccc2c(C(=O)N3CCc4[nH]cnc4C3c3cc4cccc(Cl)n4n3)cnn2c1 (centres unmarked) | > 5000 nM

same assay, conditions: A375 cells expressing human PAH R408W; 24 hrs compound incubation; 13C-Tyrosine by LC-MS; average where tested multiple times; read-out: AC50

Row | Structure (SMILES) | AC50
8 | O=C(c1nnc(C2CC2)o1)N1CCc2[nH]cnc2[C@@H]1c1cc2c(C3CC3)cccn2n1 [Example 1839, (R)-(5-cyclopropyl-1,3,4-oxadiazol-2-yl)(4-(4-cyclopropylpyrazolo[1,5-a]pyridin-2-yl)-1,4,6,7-tetrahydro-5H-imidazo[4,5-c]pyridin-5-yl)methanone] | > 5000 nM
9 | CC(O)c1nc(Cl)c(C(=O)N2CCc3[nH]cnc3[C@H]2c2cc3ccccn3n2)o1 (single isomer, unassigned) [Example 2377] | 1000 to 5000 nM
10 | Cc1cccn2nc([C@@H]3c4nc[nH]c4CCN3c3nnc(C(C)C)o3)cc12 [Example 2303, (S)-2-isopropyl-5-(4-(4-methylpyrazolo[1,5-a]pyridin-2-yl)-1,4,6,7-tetrahydro-5H-imidazo[4,5-c]pyridin-5-yl)-1,3,4-oxadiazole] | < 500 nM
11 | FC(F)(F)c1nnc(N2CCc3[nH]cnc3[C@@H]2c2cc3c(C4CC4)cccn3n2)o1 [Example 2056, (R)-2-(4-(4-cyclopropylpyrazolo[1,5-a]pyridin-2-yl)-1,4,6,7-tetrahydro-5H-imidazo[4,5-c]pyridin-5-yl)-5-(trifluoromethyl)-1,3,4-oxadiazole] | > 5000 nM
12 | CC(C)c1nnc(N2CCc3[nH]cnc3[C@H]2c2cc3c(Cl)cccn3n2)o1 [Example 2325, (S)-2-(4-(4-chloropyrazolo[1,5-a]pyridin-2-yl)-1,4,6,7-tetrahydro-5H-imidazo[4,5-c]pyridin-5-yl)-5-isopropyl-1,3,4-oxadiazole] | < 500 nM
13 | Cn1nc(C(F)(F)F)nc1C(=O)N1CCc2[nH]cnc2[C@H]1c1cc2cccc(Cl)n2n1 [Example 2412, (S)-(4-(7-chloropyrazolo[1,5-a]pyridin-2-yl)-6,7-dihydro-1H-imidazo[4,5-c]pyridin-5(4H)-yl)(1-methyl-3-(trifluoromethyl)-1H-1,2,4-triazol-5-yl)methanone] | 1000 to 5000 nM
14 | O=C(c1nnc(-c2cncnc2)o1)N1CCc2[nH]cnc2[C@H]1c1cc2c(F)cccn2n1 [Example 1974, (S)-(4-(4-fluoropyrazolo[1,5-a]pyridin-2-yl)-1,4,6,7-tetrahydro-5H-imidazo[4,5-c]pyridin-5-yl)(5-(pyrimidin-5-yl)-1,3,4-oxadiazol-2-yl)methanone] | 500 to 1000 nM
15 | CC(C)(F)c1ncc(C(=O)N2CCc3[nH]cnc3[C@H]2c2cc3c(C(F)(F)F)cccn3n2)o1 [Example 2144, (S)-(2-(2-fluoropropan-2-yl)oxazol-5-yl)(4-(4-(trifluoromethyl)pyrazolo[1,5-a]pyridin-2-yl)-1,4,6,7-tetrahydro-5H-imidazo[4,5-c]pyridin-5-yl)methanone] | < 500 nM
16 | Cn1ccc(-c2nnc(C(=O)N3CCc4[nH]cnc4[C@H]3c3cc4ccccn4n3)s2)n1 [Example 2016, (S)-(5-(1-methyl-1H-pyrazol-3-yl)-1,3,4-thiadiazol-2-yl)(4-(pyrazolo[1,5-a]pyridin-2-yl)-1,4,6,7-tetrahydro-5H-imidazo[4,5-c]pyridin-5-yl)methanone] | < 500 nM

same assay, conditions: A375 cells expressing human R408W PAH; 24 hrs compound incubation; 13C-Tyrosine by LC-MS; average where tested multiple times; read-out: AC50

Row | Structure (SMILES) | AC50
17 | Cn1cncc1-c1nc(C(F)F)c(C(=O)N2CCc3[nH]cnc3[C@@H]2c2cc3ccccn3n2)o1 [Example 868, (R)-(4-(difluoromethyl)-2-(1-methyl-1H-imidazol-5-yl)oxazol-5-yl)(4-(pyrazolo[1,5-a]pyridin-2-yl)-6,7-dihydro-1H-imidazo[4,5-c]pyridin-5(4H)-yl)methanone] | > 5000 nM
18 | Cn1ccc(-c2nnc(C(=O)N3CCc4[nH]cnc4[C@H]3c3cc4c(C(F)F)cccn4n3)o2)n1 [Example 1352, (S)-(4-(4-(difluoromethyl)pyrazolo[1,5-a]pyridin-2-yl)-6,7-dihydro-1H-imidazo[4,5-c]pyridin-5(4H)-yl)(5-(1-methyl-1H-pyrazol-3-yl)-1,3,4-oxadiazol-2-yl)methanone] | < 500 nM
19 | O=C(c1nnc(-c2ccn(C(F)(F)F)n2)o1)N1CCc2[nH]cnc2[C@H]1c1cc2c(OC(F)(F)F)cccn2n1 [Example 1706, (S)-(4-(4-(trifluoromethoxy)pyrazolo[1,5-a]pyridin-2-yl)-6,7-dihydro-1H-imidazo[4,5-c]pyridin-5(4H)-yl)(5-(1-(trifluoromethyl)-1H-pyrazol-3-yl)-1,3,4-oxadiazol-2-yl)methanone] | < 500 nM
20 | O=C(c1nnc(-c2ccc(C(F)(F)F)cc2)o1)N1CCc2[nH]cnc2[C@H]1c1cc2ccccn2n1 [Example 642, (S)-(4-(pyrazolo[1,5-a]pyridin-2-yl)-6,7-dihydro-1H-imidazo[4,5-c]pyridin-5(4H)-yl)(5-(4-(trifluoromethyl)phenyl)-1,3,4-oxadiazol-2-yl)methanone] | 500 to 1000 nM
21 | O=C(c1ccnn1C(F)F)N1CCc2[nH]cnc2[C@@H]1c1cc2c(F)cccn2n1 [Example 777, (R)-(1-(difluoromethyl)-1H-pyrazol-5-yl)(4-(4-fluoropyrazolo[1,5-a]pyridin-2-yl)-6,7-dihydro-1H-imidazo[4,5-c]pyridin-5(4H)-yl)methanone] | > 5000 nM
22 | COc1cccn2nc([C@H]3c4nc[nH]c4CCN3C(=O)c3cnn4cc(C5CC5)ccc34)cc12 [Example 1789, (R)-(6-cyclopropylpyrazolo[1,5-a]pyridin-3-yl)(4-(4-methoxypyrazolo[1,5-a]pyridin-2-yl)-6,7-dihydro-1H-imidazo[4,5-c]pyridin-5(4H)-yl)methanone] | > 5000 nM
23 | COc1cccn2nc([C@H]3c4nc[nH]c4CCN3C(=O)c3nnc(-c4ccn(C(F)F)n4)o3)cc12 [Example 1722, (R)-(5-(1-(difluoromethyl)-1H-pyrazol-3-yl)-1,3,4-oxadiazol-2-yl)(4-(4-methoxypyrazolo[1,5-a]pyridin-2-yl)-6,7-dihydro-1H-imidazo[4,5-c]pyridin-5(4H)-yl)methanone] | > 5000 nM
24 | O=C(c1nnc(C2CCC2)o1)N1CCc2[nH]cnc2[C@H]1c1cc2c(F)cccn2n1 [Example 1559, (S)-(5-cyclobutyl-1,3,4-oxadiazol-2-yl)(4-(4-fluoropyrazolo[1,5-a]pyridin-2-yl)-6,7-dihydro-1H-imidazo[4,5-c]pyridin-5(4H)-yl)methanone] | < 500 nM
25 | CC(C)(C)c1nnc(C(=O)N2CCc3[nH]cnc3[C@H]2c2cc3ccc(F)cn3n2)o1 [Example 1124, (S)-(5-(tert-butyl)-1,3,4-oxadiazol-2-yl)(4-(6-fluoropyrazolo[1,5-a]pyridin-2-yl)-6,7-dihydro-1H-imidazo[4,5-c]pyridin-5(4H)-yl)methanone] | 500 to 1000 nM
26 | CC(C)(O)c1nc(Cl)c(C(=O)N2CCc3[nH]cnc3[C@H]2c2cc3c(F)cccn3n2)o1 [Example 756, (S)-(4-chloro-2-(2-hydroxypropan-2-yl)oxazol-5-yl)(4-(4-fluoropyrazolo[1,5-a]pyridin-2-yl)-6,7-dihydro-1H-imidazo[4,5-c]pyridin-5(4H)-yl)methanone] | < 500 nM
